The test system of one test is HBV rcDNA in HepDE19 cells. The test can be described thus: HepDE19 assay with bDNA quantitation of HBV rcDNA. The conditions noted are these: HepDE19 cells, 7 day incubation, rcDNA measured by Quantigene 2.0 bDNA assay; top concentration 25 µM; read-out: DE-19bDNA EC50. In kind it is cell-based, hepatitis B virus. The method, then:
HepDE19 Assay With bDNA Quantitation of HBV rcDNA
HepDE19 (50,000 cells/well) were plated in 96-well collagen-coated tissue-culture treated microtiter plates in DMEM/F12 medium supplemented with 10% fetal bovine serum, 1% penicillin-streptomycin and 1 µg/mL tetracycline and incubated in a humidified incubator at 37° C. and 5% CO2 overnight. Next day, the cells were switched to fresh medium without tetracycline and incubated for 4 hours at 37° C. and 5% CO2. […] The final DMSO concentration in the assay was 0.5%. The plates were incubated for 7 days in a humidified incubator at 37° C. and 5% CO2. Following a 7 day-incubation, the level of rcDNA present in the inhibitor-treated wells was measured using a Quantigene 2.0 bDNA assay kit (Affymetrix, Santa Clara, CA) with HBV specific custom probe set and manufacturers instructions. Concurrently, the effect of compounds on cell viability was assessed using replicate plates, plated at a density of 5,000 cells/well and incubated for 4 days, to determine the ATP content as a measure of cell viability using the cell-titer glo reagent (CTG; Promega Corporation, Madison, WI) as per manufacturer’s instructions.
Representative compounds of the disclosure were tested for their abilities to inhibit formation of relaxed circular DNA (rcDNA) in a HepDE19 assay, as described elsewhere herein.
In the case of `CC(c1n[nH]c(=O)c2ccccc12)N(C)C(=O)Nc1ccc(F)c(Cl)c1` (single isomer, unassigned) [Compound 3, 3-(3-chloro-4-fluoro-phenyl)-1-methyl-1-[1-(4-oxo-3H-phthalazin-1-yl)ethyl]urea], the concentration for a half-maximal effect (EC50) is 14000 nM.

On to `CC(c1n[nH]c(=O)c2ccccc12)N(C)C(=O)Nc1ccc(F)c(Cl)c1` (single isomer, unassigned) [Compound 4, 3-(3-chloro-4-fluoro-phenyl)-1-methyl-1-[1-(4-oxo-3H-phthalazin-1-yl)ethyl]urea], for which the half-maximal effective concentration (EC50) came out at 200 nM. For `CC(C)CN(C(=O)Nc1ccc(F)c(Cl)c1)C(C)c1n[nH]c(=O)c2ccccc12` (single isomer, unassigned) [Compound 5, 3-(3-chloro-4-fluoro-phenyl)-1-isobutyl-1-[1-(4-oxo-3H-phthalazin-1-yl)ethyl]urea], the EC50 was 10 nM.

The same test, now with this note: Hepatitis B virus, HepDE19, 168 h, HepDE19 cells, 7 day incubation, rcDNA measured by Quantigene 2.0 bDNA assay; top concentration 25 µM; read-out: DE-19bDNA EC50.
Take `CC(c1n[nH]c(=O)c2cc(F)c(F)cc12)N(C)C(=O)c1cc2cc(F)c(F)cc2[nH]1` (racemic) [Compound 50, N-(1-(6,7-difluoro-4-oxo-3,4-dihydrophthalazin-1-yl)ethyl)-5,6-difluoro-N-methyl-1H-indole-2-carboxamide]: the EC50 amounted to 40 nM.

Consider `CC(c1n[nH]c(=O)c2cc(F)c(F)cc12)N(C)C(=O)c1cc2ccc(F)cc2[nH]1` (racemic) [Compound 52, N-(1-(6,7-difluoro-4-oxo-3,4-dihydrophthalazin-1-yl)ethyl)-6-fluoro-N-methyl-1H-indole-2-carboxamide], for which the EC50 came to 43 nM.

As to `CC(c1n[nH]c(=O)c2cc(F)c(F)cc12)N(C)C(=O)c1cc2c(F)cccc2[nH]1` (racemic) [Compound 53, N-(1-(6,7-difluoro-4-oxo-3,4-dihydrophthalazin-1-yl)ethyl)-4-fluoro-N-methyl-1H-indole-2-carboxamide], the EC50 was 83 nM. In the case of `CC(c1n[nH]c(=O)c2cc(F)c(F)cc12)N(C)C(=O)c1cc2c(F)c(F)ccc2[nH]1` (racemic) [Compound 54, N-(1-(6,7-difluoro-4-oxo-3,4-dihydrophthalazin-1-yl)ethyl)-4,5-difluoro-N-methyl-1H-indole-2-carboxamide], the EC50 came to 24 nM. For `Cc1c(C(=O)N(C)C(C)c2n[nH]c(=O)c3cc(F)c(F)cc23)[nH]c2ccccc12` (racemic) [Compound 55, N-(1-(6,7-difluoro-4-oxo-3,4-dihydrophthalazin-1-yl)ethyl)-N,3-dimethyl-1H-indole-2-carboxamide], the EC50 was determined as 440 nM. On the same count and under the same terms, under `CC(C)CN(C(=O)c1cc2ccccc2[nH]1)C(C)c1n[nH]c(=O)c2cc(F)c(F)cc12` (racemic) [Compound 56, N-(1-(6,7-difluoro-4-oxo-3,4-dihydrophthalazin-l-yl)ethyl)-N-isobutyl-1H-indole-2-carboxamide] stands 390 nM. `CC(c1n[nH]c(=O)c2cc(F)c(F)cc12)N(C)C(=O)c1cc2c(F)cc(F)cc2[nH]1` (racemic) [Compound 60, N-(1-(6,7-difluoro-4-oxo-3,4-dihydrophthalazin-1-yl)ethyl)-4,6-difluoro-N-methyl-1H-indole-2-carboxamide]: the EC50 is 50 nM. With `CC(c1n[nH]c(=O)c2cc(F)c(F)cc12)N(C)C(=O)c1ccc(C(F)(F)F)c(F)c1` (racemic) [Compound 62, N-(1-(6,7-difluoro-4-oxo-3,4-dihydrophthalazin-1-yl)ethyl)-3-fluoro-N-methyl-4-(trifluoromethyl)benzamide], the EC50 is 100 nM.

As to `CC(c1n[nH]c(=O)c2cc(F)c(F)cc12)N(C)C(=O)c1ccc(Br)c(F)c1` (racemic) [Compound 63, 4-bromo-N-(1-(6,7-difluoro-4-oxo-3,4-dihydrophthalazin-1-yl)ethyl)-3-fluoro-N-methylbenzamide], the EC50 is 60 nM. On to `CC(c1n[nH]c(=O)c2cc(F)c(F)cc12)N(C)C(=O)c1ccc(Cl)c(F)c1` (racemic) [Compound 64, 4-chloro-N-(1-(6,7-difluoro-4-oxo-3,4-dihydrophthalazin-1-yl)ethyl)-3-fluoro-N-methylbenzamide], for which the concentration giving a half-maximal response (EC50) was 140 nM. On the same count and under the same terms, the value for `CC(c1n[nH]c(=O)c2cc(F)c(F)cc12)N(C)C(=O)c1ccc(Br)cc1` (racemic) [Compound 65, 4-bromo-N-(1-(6,7-difluoro-4-oxo-3,4-dihydrophthalazin-1-yl)ethyl)-N-methylbenzamide] was 60 nM; that for `CC(c1n[nH]c(=O)c2cc(F)c(F)cc12)N(C)C(=O)c1ccc(C(F)(F)F)cc1` (racemic) [Compound 66, N-(1-(6,7-difluoro-4-oxo-3,4-dihydrophthalazin-1-yl)ethyl)-N-methyl-4-(trifluoromethyl)benzamide] was 100 nM; that for `CC(c1n[nH]c(=O)c2cc(F)c(F)cc12)N(C)C(=O)c1cc(F)c(F)c(F)c1` (racemic) [Compound 67, N-(1-(6,7-difluoro-4-oxo-3,4-dihydrophthalazin-1-yl)ethyl)-3,4,5-trifluoro-N-methylbenzamide] was 740 nM.

For the compound `CC(c1n[nH]c(=O)c2cc(F)c(F)cc12)N(C)C(=O)c1ccc(F)c(Cl)c1` (racemic) [Compound 68, 3-chloro-N-(1-(6,7-difluoro-4-oxo-3,4-dihydrophthalazin-1-yl)ethyl)-4-fluoro-N-methylbenzamide], the concentration for a half-maximal effect (EC50) is 520 nM.

Consider `CC(c1n[nH]c(=O)c2cc(F)c(F)cc12)N(C)C(=O)c1ccc(F)c(F)c1` (racemic) [Compound 70, N-(1-(6,7-difluoro-4-oxo-3,4-dihydrophthalazin-1-yl)ethyl)-3,4-difluoro-N-methylbenzamide], for which the concentration giving a half-maximal response (EC50) was found to be 890 nM.

Regarding `CC(c1n[nH]c(=O)c2cc(F)c(F)cc12)N(C)C(=O)c1cccc(C(F)F)c1` (racemic) [Compound 71, N-(1-(6,7-difluoro-4-oxo-3,4-dihydrophthalazin-1-yl)ethyl)-3-(difluoromethyl)-N-methylbenzamide], the half-maximal effective concentration (EC50) turned out to be 220 nM.

Consider `CC(c1n[nH]c(=O)c2cc(F)c(F)cc12)N(C)C(=O)c1ccc(F)c(C(F)F)c1` (racemic) [Compound 72, N-(1-(6,7-difluoro-4-oxo-3,4-dihydrophthalazin-1-yl)ethyl)-3-(difluoromethyl)-4-fluoro-N-methylbenzamide], for which the 50% effective concentration (EC50) is 340 nM. Take `CC(c1n[nH]c(=O)c2cc(F)c(F)cc12)N(C)C(=O)Nc1ccc(F)c(C(F)F)c1` (racemic) [Compound 73, 1-(1-(6,7-difluoro-4-oxo-3,4-dihydrophthalazin-1-yl)ethyl)-3-(3-(difluoromethyl)-4-fluorophenyl)-1-methylurea]: the EC50 amounted to 20 nM.

In the case of `CC(c1n[nH]c(=O)c2cc(F)c(F)cc12)N(C)C(=O)c1cc2c(Cl)cccn2c1` (racemic) [Compound 75, 8-chloro-N-(1-(6,7-difluoro-4-oxo-3,4-dihydrophthalazin-1-yl)ethyl)-N-methylindolizine-2-carboxamide], the half-maximal effective concentration (EC50) was found to be 60 nM. For the compound `CC(c1n[nH]c(=O)c2cc(F)c(F)cc12)N(C)C(=O)Nc1ccc(F)c(C#N)c1` (racemic) [Compound 76, 3-(3-cyano-4-fluorophenyl)-1-(1-(6,7-difluoro-4-oxo-3,4-dihydrophthalazin-1-yl)ethyl)-1-methylurea], the half-maximal effective concentration (EC50) turned out to be 40 nM. For the compound `CC(c1n[nH]c(=O)c2cc(F)c(F)cc12)N(C)C(=O)c1cc2c(F)cccn2c1` (racemic) [Compound 77, N-(1-(6,7-difluoro-4-oxo-3,4-dihydrophthalazin-1-yl)ethyl)-8-fluoro-N-methylindolizine-2-carboxamide], the EC50 amounted to 8380 nM. For the compound `CC(c1n[nH]c(=O)c2cc(F)c(F)cc12)N(C)C(=O)c1cnc(C(F)(F)F)c(F)c1` (racemic) [Compound 114, N-(1-(6,7-difluoro-4-oxo-3,4-dihydrophthalazin-1-yl)ethyl)-5-fluoro-N-methyl-6-(trifluoromethyl)nicotinamide], the concentration for a half-maximal effect (EC50) turned out to be 4180 nM.

The test is the same for the next values; noted with them: Hepatitis B virus, HepDE19, 168 h, read-out: DE-19bDNA EC50.
For `CC(c1n[nH]c(=O)c2cc(F)c(F)cc12)N(C)C(=O)c1cc2cc(F)ccc2[nH]1` (racemic) [Compound 51, N-(1-(6,7-difluoro-4-oxo-3,4-dihydrophthalazin-1-yl)ethyl)-5-fluoro-N-methyl-1H-indole-2-carboxamide], the concentration for a half-maximal effect (EC50) is 39 nM. On the same count and under the same terms, under `CC(c1n[nH]c(=O)c2cc(F)c(F)cc12)N(C)C(=O)c1cc2ccccn2c1` (racemic) [Compound 59, N-(1-(6,7-difluoro-4-oxo-3,4-dihydrophthalazin-1-yl)ethyl)-N-methylindolizine-2-carboxamide] stands 130 nM; under `CC(c1n[nH]c(=O)c2cc(F)c(F)cc12)N(C)C(=O)c1ccc(Cl)cc1` (racemic) [Compound 69, 4-chloro-N-(1-(6,7-difluoro-4-oxo-3,4-dihydrophthalazin-1-yl)ethyl)-N-methylbenzamide], 200 nM. With `CC(c1n[nH]c(=O)c2cc(F)c(F)cc12)N(C)C(=O)c1ccccc1` (racemic) [Compound 74, N-(1-(6,7-difluoro-4-oxo-3,4-dihydrophthalazin-1-yl)ethyl)-N-methylbenzamide], the half-maximal effective concentration (EC50) stood at 17700 nM.

Usually EC50 stands for the concentration at which the effect is half-maximal.

These data come from patent US20230312481A1, “SUBSTITUTED (PHTHALAZIN-1-YLMETHYL)UREAS, SUBSTITUTED N-(PHTHALAZIN-1-YLMETHYL)AMIDES, AND ANALOGUES THEREOF” (priority 2020, published 2023).
